Test results: ChEMBL document CHEMBL3045278, “Anticonvulsant and sedative-hypnotic activity of some novel 3-[5-(4-substituted) phenyl-1,3,4-oxadiazole-2yl]-2-styrylquinazoline-4(3H)-ones” (Med Chem Res, 2010)
Calls of active or inactive are those of the source. The rule behind the calls is not given here.

How the values were obtained:
Mus musculus [1] = assay: Anticonvulsant activity in Mus musculus albino (mouse) assessed as protection against maximal electroshock-induced seizures at 300 mg/kg, ip measured at 4 hr; assay type: functional, organism-based; set-up: dose 300 mg/kg
Mus musculus [2] = assay: Neurotoxicity in Mus musculus albino (mouse) assessed as minimal motor impairment at 300 mg/kg, ip measured at 4 hr; assay type: toxicity, organism-based; set-up: dose 300 mg/kg, route intraperitoneal; conditions: in vivo
Rattus norvegicus [3] = assay: Antidepressant activity in Rattus norvegicus Wistar (rat) assessed as immobility time at 100 mg/kg, ip after 60 min by forced swim pool test relative to control; conditions: route intraperitoneal
Mus musculus [4] = assay: Anticonvulsant activity in Mus musculus albino (mouse) assessed as protection against subcutaneous pentylenetetrazol-induced seizures at 300 mg/kg, ip measured at 4 hr; assay type: functional, organism-based; set-up: dose 300 mg/kg
Mus musculus [5] = assay: Neurotoxicity in Mus musculus albino (mouse) assessed as minimal motor impairment at 300 mg/kg, ip measured at 0.5 hr; assay type: toxicity, organism-based; set-up: dose 300 mg/kg, route intraperitoneal; conditions: in vivo
Mus musculus [6] = assay: Anticonvulsant activity in Mus musculus albino (mouse) assessed as protection against maximal electroshock-induced seizures at 300 mg/kg, ip measured at 0.5 hr; assay type: functional, organism-based; set-up: dose 300 mg/kg
Mus musculus [7] = species: Mus musculus; assay: Sedative-hypnotic activity in Mus musculus albino (mouse) assessed as increase in phenobarbitone-induced sleeping time; assay type: functional, organism-based
Mus musculus [8] = assay: Anticonvulsant activity in Mus musculus albino (mouse) assessed as protection against subcutaneous pentylenetetrazol-induced seizures at 300 mg/kg, ip measured at 0.5 hr; assay type: functional, organism-based; set-up: dose 300 mg/kg
Mus musculus [9] = assay: Behavioral activity in Mus musculus albino (mouse) assessed as inhibition of locomotion at 100 mg/kg, ip after 1 hr by actophotometric analysis relative to control; assay type: functional; conditions: route intraperitoneal
Mus musculus [10] = assay: Anticonvulsant activity in ip dosed Mus musculus albino (mouse) assessed as protection against maximal electroshock-induced seizures measured at 0.5 hr; assay type: functional; conditions: read-out: MED
Mus musculus [11] = assay: Neurotoxicity in ip dosed Mus musculus albino (mouse) assessed as minimal motor impairment measured at 0.5 hr; assay type: toxicity, organism-based; conditions: in vivo
Mus musculus [12] = assay: Neurotoxicity in ip dosed Mus musculus albino (mouse) assessed as minimal motor impairment measured at 4 hr; assay type: toxicity, organism-based; conditions: in vivo
Mus musculus [13] = assay: Anticonvulsant activity in ip dosed Mus musculus albino (mouse) assessed as protection against maximal electroshock-induced seizures measured at 4 hr; assay type: functional; conditions: read-out: MED
Mus musculus [14] = assay: Behavioral activity in Mus musculus albino (mouse) assessed as inhibition of locomotion at 25 mg/kg, ip after 1 hr by actophotometric analysis relative to control; assay type: functional; conditions: route intraperitoneal
Mus musculus [15] = assay: Anticonvulsant activity in ip dosed Mus musculus albino (mouse) assessed as protection against subcutaneous pentylenetetrazol-induced seizures measured at 0.5 hr; assay type: functional; conditions: read-out: MED
Mus musculus [16] = assay: Anticonvulsant activity in ip dosed Mus musculus albino (mouse) assessed as protection against subcutaneous pentylenetetrazol-induced seizures measured at 4 hr; assay type: functional; conditions: read-out: MED
Rattus norvegicus [17] = assay: Antidepressant activity in Rattus norvegicus Wistar (rat) assessed as immobility time at 25 mg/kg, ip after 60 min by forced swim pool test relative to control; conditions: route intraperitoneal

SMILES | Activity (Mus musculus [1]) | Activity (Mus musculus [2]) | Time (Rattus norvegicus [3]) [s] | Activity (Mus musculus [4]) | Activity (Mus musculus [5]) | Activity (Mus musculus [6]) | Activity (Mus musculus [7]) | Activity (Mus musculus [8]) | inhibition in vivo at 100 mg/kg (Mus musculus [9]) [%] | minimal effective dose (Mus musculus [10]) [mg/kg] | MTC (Mus musculus [11]) [mg/kg] | MTC (Mus musculus [12]) [mg/kg] | minimal effective dose (Mus musculus [13]) [mg/kg] | inhibition in vivo at 25 mg/kg (Mus musculus [14]) [%] | minimal effective dose (Mus musculus [15]) [mg/kg] | minimal effective dose (Mus musculus [16]) [mg/kg] | Time (Rattus norvegicus [17]) [s]
Cc1ccc(/C=C/c2nc3ccccc3c(=O)n2-c2nnc(-c3ccc(C)cc3)o2)cc1 | inactive | Non-toxic | 163.21 | inactive | Non-toxic | inactive | inactive | inactive | 40 | – | – | – | – | – | – | – | –
Cc1ccc(/C=C/c2nc3ccccc3c(=O)n2-c2nnc(-c3ccc(Cl)cc3)o2)cc1 | inactive | Non-toxic | 135.18 | inactive | Non-toxic | – | inactive | inactive | 45 | 300 | – | – | – | – | – | – | –
Cc1ccc(/C=C/c2nc3ccccc3c(=O)n2-c2nnc(-c3ccccc3)o2)cc1 | inactive | Non-toxic | 160.05 | inactive | Non-toxic | inactive | inactive | inactive | 47 | – | – | – | – | – | – | – | –
Cc1ccc(-c2nnc(-n3c(/C=C/c4ccccc4)nc4ccccc4c3=O)o2)cc1 | inactive | Non-toxic | 152.39 | inactive | Non-toxic | inactive | inactive | inactive | 48 | – | – | – | – | – | – | – | –
COc1ccc(-c2nnc(-n3c(/C=C/c4ccccc4)nc4ccccc4c3=O)o2)cc1 | inactive | Non-toxic | 163.75 | inactive | – | inactive | inactive | inactive | 41 | – | 300 | – | – | – | – | – | –
O=C1NC(=O)C(c2ccccc2)(c2ccccc2)N1 [PHENYTOIN] | – | – | – | inactive | – | – | – | inactive | – | 30 | 100 | 100 | 30 | 70 | – | – | –
O=c1c2ccccc2nc(/C=C/c2ccccc2)n1-c1nnc(-c2ccccc2)o1 | inactive | Non-toxic | 113.14 | inactive | Non-toxic | inactive | inactive | inactive | 48 | – | – | – | – | – | – | – | –
CN(C)c1ccc(-c2nnc(-n3c(/C=C/c4ccc(Cl)cc4)nc4ccccc4c3=O)o2)cc1 | – | – | 121.21 | – | – | – | inactive | – | 49 | 100 | 100 | 100 | 100 | – | 300 | 300 | –
Cc1ccc(-c2nnc(-n3c(/C=C/c4ccc(Cl)cc4)nc4ccccc4c3=O)o2)cc1 | inactive | Non-toxic | 150.76 | inactive | Non-toxic | inactive | inactive | inactive | 56 | – | – | – | – | – | – | – | –
CN(C)c1ccc(-c2nnc(-n3c(/C=C/c4ccccc4)nc4ccccc4c3=O)o2)cc1 | inactive | Non-toxic | 50.23 | inactive | Non-toxic | inactive | inactive | inactive | 30 | – | – | – | – | – | – | – | –
O=c1c2ccccc2nc(/C=C/c2ccc(Cl)cc2)n1-c1nnc(-c2ccc(Cl)cc2)o1 | inactive | Non-toxic | 100.12 | inactive | – | inactive | inactive | inactive | 53 | – | 100 | – | – | – | – | – | –
CCCC(CCC)C(=O)[O-].[Na+] [VALPROATE SODIUM] | inactive | Non-toxic | – | inactive | Non-toxic | inactive | – | – | – | – | – | – | – | – | 300 | – | –
COc1ccc(-c2nnc(-n3c(/C=C/c4ccc(C)cc4)nc4ccccc4c3=O)o2)cc1 | inactive | Non-toxic | 182.82 | inactive | Non-toxic | inactive | inactive | inactive | 42 | – | – | – | – | – | – | – | –
NC(=O)N1c2ccccc2C=Cc2ccccc21 [CARBAMAZEPINE] | – | – | – | – | – | – | – | – | – | 30 | 100 | 300 | 100 | – | 100 | 300 | 240.3
COc1ccc(-c2nnc(-n3c(/C=C/c4ccc(Cl)cc4)nc4ccccc4c3=O)o2)cc1 | inactive | Non-toxic | 184.36 | inactive | Non-toxic | inactive | inactive | inactive | 50 | – | – | – | – | – | – | – | –
O=c1c2ccccc2nc(/C=C/c2ccc(Cl)cc2)n1-c1nnc(-c2ccccc2)o1 | inactive | Non-toxic | 151.11 | inactive | Non-toxic | inactive | inactive | inactive | 51 | – | – | – | – | – | – | – | –
O=c1c2ccccc2nc(/C=C/c2ccccc2)n1-c1nnc(-c2ccc(Cl)cc2)o1 | inactive | Non-toxic | 217.93 | inactive | Non-toxic | inactive | inactive | inactive | 38 | – | – | – | – | – | – | – | –
Cc1ccc(/C=C/c2nc3ccccc3c(=O)n2-c2nnc(-c3ccc(N(C)C)cc3)o2)cc1 | inactive | Non-toxic | 125.42 | inactive | – | inactive | inactive | inactive | 37 | – | 100 | – | – | – | – | – | –
